Columns and labels:
[1] = intranasal; relative to hydrocortisone; cited from earlier work
[2] = test system: SEQ ID NO:64 expression in human C3A liver cells; assay: Microarray expression of SEQ ID NO:64 in C3A liver cell cultures treated with steroids; assay type: cell-based; details: early confluent human C3A liver cells, 1 μM, 10 μM, and 100 μM for 1, 3, and 6 hours, compared to untreated cells
Description: Total RNA is isolated from tissue samples using the guanidinium thiocyanate method and poly(A)^+ RNA is purified using the oligo-(dT) cellulose method. Each poly(A)^+ RNA sample is reverse transcribed using MMLV reverse-transcriptase, 0.05 pg/μl oligo-(dT) primer (21mer), 1× first strand buffer, 0.03 units/μl RNase inhibitor, 500 μM dATP, 500 μM dGTP, 500 μM dTTP, 40 μM dCTP, 40 μM dCTP-Cy3 (BDS) or dCTP-Cy5 (Amersham Biosciences). The reverse transcription reaction is performed in a 25 ml volume containing 200 ng poly(A)^+ RNA with GEMBRIGHT kits (Incyte). Specific control poly(A)^+ RNAs are synthesized by in vitro transcription from non-coding yeast genomic DNA. After incubation at 37° C. for 2 hr, each reaction sample (one with Cy3 and another with Cy5 labeling) is treated with 2.5 ml of 0.5M sodium hydroxide and incubated for 20 minutes at 85° C. to the stop the reaction and degrade the RNA. Samples are purified using two successive CHROMA SPIN 30 gel filtration spin columns (Clontech, Palo Alto Calif.) and after combining, both reaction samples are ethanol precipitated using 1 ml of glycogen (1 mg/ml), 60 ml sodium acetate, and 300 ml of 100% ethanol. The sample is then dried to completion using a SpeedVAC (Savant Instruments Inc., Holbrook N.Y.) and resuspended in 14 μl 5×SSC/0.2% SDS.
Sequences of the present invention are used to generate array elements. Each array element is amplified from bacterial cells containing vectors with cloned cDNA inserts. PCR amplification uses primers complementary to the vector sequences flanking the cDNA insert. Array elements are amplified in thirty cycles of PCR from an initial quantity of 1-2 ng to a final quantity greater than 5 μg. Amplified array elements are then purified using [sequence]-400 (Amersham Biosciences). […]
Reporter-labeled hybridization complexes are detected with a microscope equipped with an Innova 70 mixed gas 10 W laser (Coherent, Inc., Santa Clara Calif.) capable of generating spectral lines at 488 nm for excitation of Cy3 and at 632 nm for excitation of Cy5. […]

[3] = relative to progesterone; cited from earlier work
[4] = test system: SEQ ID NO:61 expression in human peripheral blood mononuclear cells (PBMCs); assay: Microarray expression of SEQ ID NO:61 in PBMCs treated with acetaminophen; assay type: cell-based; details: human PBMCs treated with acetaminophen compared to untreated cells
From the text: Therefore, SEQ ID NO:61 is useful in disease staging and in diagnostic assays for immune disorders.

C[C@H]1C[C@H]2[C@@H]3CCC4=CC(=O)C=C[C@]4(C)[C@@]3(Cl)[C@@H](O)C[C@]2(C)[C@@]1(O)C(=O)CO [beclomethasone]
anti-inflammatory and vasoconstrictive effects greater than those produced by hydrocortisone [1]: 5000 times
expression of SEQ ID NO:64 [2]: decreased expression

C[C@]12C=CC(=O)C=C1CC[C@@H]1[C@@H]2C(=O)C[C@@]2(C)[C@H]1CC[C@]2(O)C(=O)CO [prednisone]
expression of SEQ ID NO:64 [2]: decreased expression

6α-methyl-17-hydroxyprogesterone [medroxyprogesterone]
expression of SEQ ID NO:64 [2]: decreased expression
pharmacological activity greater than progesterone [3]: about 15 times

CC(=O)Nc1ccc(O)cc1 [acetaminophen]
decrease in expression of SEQ ID NO:61 [4]: two-fold

From patent US20050123912A1, “Nucleic-acid associated proteins” (priority 2002, published 2005)
